Source: paper PMC3042124 (Organic & biomolecular chemistry, 2010)

Key:
Type in all cases: biochemical
[1] = biological target: β2 subunit of the constitutive proteasome (Homo sapiens, UniProt P49720+Q99436)
[2] = biological target: β1 subunit of the constitutive proteasome (Homo sapiens, UniProt P28072+Q99436)
[3] = biological target: β5 subunit of the constitutive proteasome (Homo sapiens, UniProt P20618+P28074)

SMILES	IC50 [1]	IC50 [2]	IC50 [3]
COc1ccc(C[C@H](NC(=O)Cc2ccc3ccccc3c2)C(=O)N[C@@H](Cc2ccccc2)C(=O)N[C@H](/C=C/S(=O)(=O)c2ccc(O)cc2)CC(C)C)cc1 [IIa, (Tyr(Me)-Phe-Leu-4-hydroxyphenyl-vinylsulfone)-2-(naphthalen-2-yl)-acetamide]	78 ± 23 µM	32 ± 16 µM	0.07 ± 0.01 µM
COc1ccc(C[C@H](NC(=O)Cc2ccc3ccccc3c2)C(=O)N[C@@H](Cc2ccccc2)C(=O)N[C@H](/C=C/S(C)(=O)=O)CC(C)C)cc1 [IIb, (Tyr(Me)-Phe-Leu-methyl-vinylsulfone)-2-(naphthalen-2-yl)-acetamide]	> 100 µM	> 100 µM	0.11 ± 0.02 µM
CCCC[C@H](NC(=O)[C@@H]1CCCN1C(=O)[C@H](C)NC(C)=O)C(=O)N[C@H](/C=C/S(=O)(=O)c1ccc(O)cc1)CC(C)C [Ia, Ac-Ala-Pro-Nle-Leu-4-hydroxyphenyl-vinylsulfone]	> 100 µM	4 ± 0.67 µM	> 100 µM
CCCC[C@H](NC(=O)[C@@H]1CCCN1C(=O)[C@H](C)NC(C)=O)C(=O)N[C@H](/C=C/S(C)(=O)=O)CC(C)C [Ib, Ac-Ala-Pro-NLe-Leu-methyl-vinylsulfone]	> 100 µM	7.8 ± 0.86 µM	> 100 µM
